Source: patent US8129527B2, “Analogs of dehydrophenylahistins and their therapeutic use” (Nereus Pharmacuticals, Inc., priority 2006, dated 2012)
Where two headings read alike, the source gives them in different places.

Legend:
HT-29 cells = assay: Additional cytotoxicity assays, resazurin (Table 3.1); assay type: cell-based, human; details: for EC50: Homo sapiens
Protocol: 10× concentrated serial dilutions of the two compounds were prepared in appropriate culture medium for final concentrations ranging from 2.0×10^−5 M to 2.0×10^−10 M. Ten μl volumes of the 10× serial dilutions were added to the test wells in triplicate and the plates returned to the incubator for 48 hours.
(§1) Following 48 hours of drug exposure 10 μl of 0.2 mg/ml resazurin (obtained from Sigma-Aldrich Chemical Co.) in Mg^2+, Ca^2+ free PBS was added to each well and the plates were returned to the incubator for 3-4 hours. […] Resazurin dye without cells was used to determine the background, which was subtracted from the data for all experimental wells. The data were analyzed using Prism software (GraphPad Software).
Additional cytotoxicity assays were performed as described above under this example, using Resazurin fluorescence as an indicator of cell viability.

[1] = tested on: HT-29 human colorectal carcinoma cells; assay: Cell growth inhibition assay, resazurin (Table 3.2); assay type: cell-based
Protocol: The cytotoxic effects of various derivatives of dehydrophenylahistin against HT-29 human colorectal carcinoma cells were determined.
HT-29 cells (ATCC; HTB-38) were maintained in ATCC recommended culture media and cultured in an incubator at 37° C. in 5% CO2 and 95% humidified air.
For cell growth inhibition assays, HT-29 cells were seeded at 5×10^3 cells/well in 90 μl complete media into a Corning 3904 black-walled, clear-bottom tissue culture plates and the plates were incubated overnight to allow cells to establish and enter log phase growth. 20 mM stock solutions of compounds were prepared in 100% DMSO and stored at −80° C. 10× concentrated serial dilutions of the compounds were prepared in culture medium for final concentrations ranging from 20 μM to […]. Ten μl volumes of the 10× serial dilutions were added to the test wells in triplicate and the plates returned to the incubator for 48 hours. The final concentration of DMSO was 0.25% in all samples.
as §1, with “exposure,” for “exposure”, “phosphate buffered saline” for “PBS”, “dye in medium” for “dye”, “wells.” for “wells. The data were analyzed using Prism software (GraphPad Software).”

HT-29 human colon cells = assay: Tumor cytotoxicity assay, resazurin fluorescence, 48 h (Example 6); assay type: cell-based; details: for EC50: Homo sapiens, HT-29
[2] = HT-29, Table 3.1, read-out: EC50 (M) Mean
[3] = Table 3.2, HT-29 cells, read-out: EC50 (M) Mean

Row | EC50 [1, 3] | SMILES | EC50 ([1]; HT-29, read-out: EC50 (M) Mean) | further results
1 | – | COc1cccc(/C=c2\[nH]c(=O)/c(=C/c3nc[nH]c3C(C)(C)C)[nH]c2=O)c1N [Compound 2455, tBu-delta-PLH-2-NH2-3-OMe] | – | EC50 (HT-29 cells; [2]): 3.49e-07 M; % cytotox Mean (HT-29 cells; Table 3.1): 87%
2 | – | CC(C)(C)c1[nH]cnc1/C=c1\[nH]c(=O)/c(=C/c2ccccc2N)[nH]c1=O [Compound 2457, tBu-delta-PLH-2-NH2] | – | EC50 (HT-29 cells; [2]): 4.32e-07 M; % cytotox Mean (HT-29 cells; Table 3.1): 86%
3 | – | CC(C)(C)c1[nH]cnc1/C=c1\[nH]c(=O)/c(=C/c2cccc(N)c2)[nH]c1=O [Compound 2458, tBu-delta-PLH-m-NH2] | – | EC50 (HT-29 cells; HT-29, read-out: EC50 (M) Mean): 3.1e-08 M; % cytotox Mean (HT-29 cells; Table 3.1): 87%
4 | – | CC(C)(C)c1[nH]cnc1/C=c1\[nH]c(=O)/c(=C/c2sccc2B(O)O)[nH]c1=O [Compound 2459, tBu-delta-PLH-3-B(OH)2-2-thienyl] | – | EC50 (HT-29 cells; [2]): 2.53e-08 M; % cytotox Mean (HT-29 cells; Table 3.1): 88%
5 | 2.95e-07 M | CC(C)(C)c1[nH]cnc1/C=c1\[nH]c(=O)/c(=C/c2cc(Cl)ccc2N)[nH]c1=O [Compound 2461, tBu-delta-PLH-5-Cl-2-NH2] | – | –
6 | – | COc1cccc(/C=c2\[nH]c(=O)/c(=C/c3ncoc3C(C)(C)C)[nH]c2=O)c1 [Compound 2462, tBu-Oxadelta-PLH-m-OMe] | 5.41e-08 M | –
7 | – | CC(C)(C)c1ocnc1/C=c1\[nH]c(=O)/c(=C/c2cccc3ccccc23)[nH]c1=O [Compound 2464, tBu-Oxadelta-PLH-1-naphth] | 5.37e-08 M | –
8 | 5.4e-08 M | CC(C)(C)c1ocnc1/C=c1\[nH]c(=O)/c(=C/c2ccccc2Cl)[nH]c1=O [Compound 2465, tBu-Oxadelta-PLH-2-Cl] | – | –
9 | – | Cc1cccc(/C=c2\[nH]c(=O)/c(=C/c3ncoc3C(C)(C)C)[nH]c2=O)c1 [Compound 2466, tBu-Oxadelta-PLH-3-CH3] | 5.55e-08 M | –
10 | – | CC(C)(C)c1ocnc1/C=c1\[nH]c(=O)/c(=C/c2cccc(Cl)c2)[nH]c1=O [Compound 2467, tBu-Oxadelta-PLH-3-Cl] | 5.41e-08 M | –
11 | – | CC(C)(C)c1ocnc1/C=c1\[nH]c(=O)/c(=C/c2cccc(Cl)c2Cl)[nH]c1=O [Compound 2468, tBu-Oxadelta-PLH-2,3-diCl] | 7.92e-08 M | –
12 | 8.63e-08 M | COc1cc(/C=c2\[nH]c(=O)/c(=C/c3ncoc3C(C)(C)C)[nH]c2=O)cc(OC)c1 [Compound 2469, tBu-Oxadelta-PLH-3,5-diOMe] | – | –
13 | 2.78e-07 M | CC(C)(C)c1ocnc1/C=c1\[nH]c(=O)/c(=C/c2cc(Cl)cc(Cl)c2)[nH]c1=O [Compound 2470, tBu-Oxadelta-PLH-3,5-diCl] | – | –
14 | 1.01e-07 M | CCOc1cccc(/C=c2\[nH]c(=O)/c(=C/c3ncoc3C(C)(C)C)[nH]c2=O)c1 [Compound 2471, tBu-Oxadelta-PLH-m-OEt] | – | –
15 | – | Cc1ccccc1/C=c1\[nH]c(=O)/c(=C/c2ncoc2C(C)(C)C)[nH]c1=O [Compound 2472, tBu-Oxadelta-PLH-o-Me] | 5.46e-08 M | –
16 | 5.59e-08 M | CC(C)(C)c1ocnc1/C=c1\[nH]c(=O)/c(=C/c2cccc(Br)c2)[nH]c1=O [Compound 2473, tBu-Oxadelta-PLH-3-Br] | – | –
17 | – | CC(C)(C)c1ocnc1/C=c1\[nH]c(=O)/c(=C/c2ccccn2)[nH]c1=O [Compound 2474, tBu-Oxadelta-PLH-2-Py] | > 6.32e-07 M | –
18 | 4.66e-07 M | CC(C)(C)c1ocnc1/C=c1\[nH]c(=O)/c(=C/c2ccccc2F)[nH]c1=O [Compound 2475, tBu-Oxadelta-PLH-2-F] | – | –
19 | 1.24e-07 M | CC(C)(C)c1ocnc1/C=c1\[nH]c(=O)/c(=C/c2ccccc2[N+](=O)[O-])[nH]c1=O [Compound 2476, tBu-Oxadelta-PLH-2-NO2] | – | –
20 | 4.86e-08 M | CC(C)(C)c1ocnc1/C=c1\[nH]c(=O)/c(=C/c2cccc(OC(F)(F)F)c2)[nH]c1=O [Compound 2477, tBu-Oxadelta-PLH-m-OCF3] | – | –
21 | – | COc1cc(/C=c2\[nH]c(=O)/c(=C/c3nc[nH]c3C(C)(C)C)[nH]c2=O)cc(OC)c1 [KPU-16, tBu-ΔPLH-3,5-diOMe] | – | EC50 (HT-29 human colon cells; Table 3, read-out: EC50 (nM) HT-29): 42 nM; EC50 (HT-29 human colon cells; Table 5, synthetic potent dehydroPLH derivatives, read-out: EC50): 42 nM; cytotoxic activity against HT-29 cells (HT-29 human colon cells; in words): showed high activity
